molecular target: T1, hα7-wt nAChR (Homo sapiens, UniProt P36544); assay: Ca2+ flux imaging (FDSS) (Protocol B), potentiation of the choline response; type: cell-based; settings: Ca2+ assay as described in D.1; "<5" = activity did not reach a top plateau at maximal concentration
T1 construct: expressed in transfected cells
Procedure: Ca^2+ Flux Imaging (FDSS) (Protocol B)
• Hanks buffered saline solution (HBSS, Invitrogen, Belgium), supplemented with 10 mM HEPES (Invitrogen, Belgium), CaCl2 to a final concentration of 5 mM, 0.1% Bovine serum albumin (Sigma-Aldrich NV, Belgium). b) Calcium-Sensitive Dye—Fluo-4AM • Fluo-4AM (Molecular Probes, USA) was dissolved in DMSO containing 10% Pluronic acid (Molecular Probes, USA) to give a stock solution which was diluted in assay buffer supplemented with 5 mM probenicid (Sigma, Aldrich NV, Belgium) to give a final concentration of 2 μM. c) 384-Well Plates • Black 384 well plate black/clear plates, PDL pre-coated (Corning, Incorporated, USA) d) Calcium Flux Measurement • A Functional drug screening system (FDSS, Hamamatsu) was used to measure intracellular free-calcium flux signals. Method
Monolayers of hα7-wt nAChR-expressing cells were grown in multi-well plates, in particular black-sided, transparent bottomed 384 well plates coated with poly-D-lysine for 24 hours prior to loading with a fluorescent calcium indicator, in a particular embodiment loading with fluo-4AM for up to 120 minutes.
PAM activity was detected in real time by applying the compounds to be tested to the loaded cells along with a α7 nicotinic receptor agonist during constant monitoring of cellular fluorescence in a FDSS. Compounds giving peak fluorescent responses greater than the response due to agonist alone, were considered to be α7 nAChR PAM's. In a particular embodiment, the α7 nicotinic receptor agonist was choline, a more particular embodiment choline applied at a sub-maximal concentration of 100 μM. In a further setting of the present invention the compounds to be tested were applied prior to the α7 nicotinic receptor agonist, in a particular embodiment up to 10 minutes prior to the agonist.
A control response to choline was calculated on each plate from the difference in peak in fluorescence in wells receiving either choline or assay buffer alone. Compounds of the present invention were tested at a concentration range from 0.01 μM to 30 μM. Compounds were considered to have an interesting activity when they potentiated the choline signal at least with 200% when tested at a concentration of 30 μM (the efficacy of 100 μM choline was defined as 100% in the absence of a PAM). An EC50 (or pEC50) was determined as a concentration relating to half the maximal effect, when a clear sigmoidal curve with top plateau was obtained.

T1 sequence (P36544 23-502): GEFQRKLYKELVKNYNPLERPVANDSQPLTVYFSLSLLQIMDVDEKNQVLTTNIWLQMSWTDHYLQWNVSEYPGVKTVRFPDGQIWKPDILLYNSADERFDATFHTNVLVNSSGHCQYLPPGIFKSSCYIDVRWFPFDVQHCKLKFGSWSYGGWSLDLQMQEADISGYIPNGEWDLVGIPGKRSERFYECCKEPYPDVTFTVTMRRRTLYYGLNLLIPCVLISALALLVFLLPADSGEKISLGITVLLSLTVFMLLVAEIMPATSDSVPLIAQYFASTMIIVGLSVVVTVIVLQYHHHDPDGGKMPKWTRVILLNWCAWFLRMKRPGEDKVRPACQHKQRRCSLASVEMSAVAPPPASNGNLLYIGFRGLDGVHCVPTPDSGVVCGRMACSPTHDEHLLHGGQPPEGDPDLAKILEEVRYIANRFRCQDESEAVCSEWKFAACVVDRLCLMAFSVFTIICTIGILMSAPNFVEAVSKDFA

Compound	EC50
CCNC(=O)Cn1nc(Nc2ccc(F)c(F)c2)cc1-c1ccncc1 [compound 20]	> 10 µM
CNC(=O)Cn1nc(Nc2ccc(F)c(F)c2F)cc1-c1cc(C)nc(C)c1 [compound 120]	1.15 µM
CNC(=O)Cn1nc(Nc2cc(F)c(F)c(F)c2)cc1-c1cc(C)nc(C)c1 [compound 127]	1.02 µM
Cc1cc(-c2cc(Nc3cccc(C(F)(F)F)c3)nn2CC(=O)NC2CC2)cc(C)n1 [compound 150]	0.525 µM
Cc1ccnc(-c2cc(Nc3ccc(F)c(C(F)(F)F)c3)nn2C[C@H](C)O)c1 [compound 25]	0.933 µM
CC[C@H](O)Cn1nc(Nc2cc(OC)cc(C(F)(F)F)c2)cc1-c1cc(C)nc(C)c1 [compound 101]	0.151 µM
CCNc1cc(-c2cc(Nc3ccc(F)c(F)c3)nn2C[C@H](C)O)cc(C)n1 [compound 66]	> 10 µM
CNC(=O)Cn1nc(Nc2cc(F)c(F)c(F)c2)cc1-c1cccnc1 [compound 15]	> 10 µM
CCNC(=O)Cn1nc(Nc2cc(F)cc(Cl)c2)cc1-c1ccnc(C)c1 [compound 39]	0.776 µM
Cc1cc(-c2cc(Nc3cc(F)c(F)c(F)c3)nn2CC(=O)NC2CC2)cc(C)n1 [compound 172]	0.186 µM
Cc1cc(-c2cc(Nc3ccc(F)c(C(F)(F)F)c3)nn2CCC(=O)N(C)C)cc(C)n1 [compound 161]	0.24 µM
CCNC(=O)Cn1nc(Nc2cccc(OC(F)(F)F)c2)cc1-c1cc(C)nc(C)c1 [compound 139]	0.646 µM
COc1cc(Nc2cc(-c3cc(C)nc(C)c3)n(CC(=O)NC3CCC3)n2)cc(C(F)(F)F)c1 [compound 162]	0.437 µM
CNC(=O)Cn1nc(Nc2ccc(F)c(C(F)(F)F)c2)cc1-c1ccnc(C)c1 [compound 34]	3.39 µM
CN(C)C(=O)CCn1nc(Nc2ccc(F)c(F)c2)cc1-c1ccc2c(c1)OCCO2 [compound 84]	0.0513 µM
CNC(=O)Cn1nc(Nc2cccc(Cl)c2F)cc1-c1cc(C)nc(C)c1 [compound 141]	0.562 µM
COc1cc(Nc2cc(-c3cc(C)nc(C)c3)n(CC(=O)NC3CC3)n2)cc(C(F)(F)F)c1 [compound 138]	0.617 µM
CNC(=O)Cn1nc(Nc2cccc(C(F)(F)F)c2)cc1-c1cccnc1 [compound 13]	> 10 µM
CCNc1cc(-c2cc(Nc3cc(OC)cc(C(F)(F)F)c3)nn2C[C@H](C)O)ccn1 [compound 63]	3.98 µM
CNC(=O)Cn1nc(Nc2cccc(OC(F)(F)F)c2)cc1-c1cc(C)nc(C)c1 [compound 129]	0.933 µM
CNC(=O)Cn1nc(Nc2cccc(OC(F)(F)F)c2)cc1-c1cccnc1 [compound 14]	5.13 µM
CNC(=O)Cn1nc(Nc2cc(OC)cc(C(F)(F)F)c2)cc1-c1cc(C)nc(C)c1 [compound 105]	3.16 µM
Cc1cc(-c2cc(Nc3cc(F)cc(Cl)c3)nn2C[C@H](C)O)ccn1 [compound 42]	1.12 µM
Cc1cc(-c2cc(Nc3ccc(F)c(F)c3)nn2CC(=O)NC2CCC2)cc(C)n1 [compound 171]	0.148 µM
CC[C@H](O)Cn1nc(Nc2cc(OC)cc(C(F)(F)F)c2)cc1-c1ccnc(COC)c1 [compound 99]	0.955 µM
CCNc1cc(-c2cc(Nc3ccc(F)c(C(F)(F)F)c3)nn2C[C@H](C)O)cc(C)n1 [compound 67]	1.38 µM
CC[C@H](O)Cn1nc(Nc2ccc(F)c(C(F)(F)F)c2)cc1-c1ccc(C)nc1 [compound 29]	1.12 µM

Compound	EC50
CNC(=O)Cn1nc(Nc2ccc(F)c(C(F)(F)F)c2)cc1-c1cc(C)nc(C)c1 [compound 114]	1.15 µM
CCNC(=O)Cn1nc(Nc2ccc3c(c2)OC(F)(F)O3)cc1-c1ccc2c(c1)OCCO2 [compound 98]	0.324 µM
CNC(=O)Cn1nc(Nc2cc(F)c(F)c(F)c2)cc1-c1ccnc(C)c1 [compound 109]	1.78 µM
Cc1cc(-c2cc(Nc3ccc(F)c(F)c3F)nn2CC(=O)NC2CC2)cc(C)n1 [compound 156]	0.38 µM
CCNC(=O)Cn1nc(Nc2ccc(F)c(F)c2)cc1-c1cccnc1 [compound 16]	> 10 µM
CN(C)C(=O)CCn1nc(Nc2cccc(F)c2)cc1-c1ccc2c(c1)OCCO2 [compound 82]	0.135 µM
CNC(=O)Cn1nc(Nc2ccc3c(c2)OC(F)(F)O3)cc1-c1ccncc1C [compound 89]	> 10 µM
CCNC(=O)Cn1nc(Nc2cccc(OC(F)(F)F)c2)cc1-c1ccc2c(c1)OCCO2 [compound 80]	0.204 µM
CCNC(=O)Cn1nc(Nc2cccc(C(F)(F)F)c2)cc1-c1cccnc1 [compound 18]	> 10 µM
CCNC(=O)Cn1nc(Nc2cc(F)cc(C(F)(F)F)c2)cc1-c1ccncc1C [compound 31]	2.69 µM
Cc1cc(-c2cc(Nc3ccc(F)c(F)c3F)nn2CC(=O)NC2CCC2)cc(C)n1 [compound 182]	0.182 µM
CCNC(=O)Cn1nc(Nc2cc(F)c(F)c(F)c2)cc1-c1cc(C)nc(C)c1 [compound 167]	0.263 µM
CCNC(=O)Cn1nc(Nc2cc(F)c(F)c(F)c2)cc1-c1ccc2c(c1)OCCO2 [compound 78]	0.302 µM
CNC(=O)Cn1nc(Nc2ccc(F)c(C(F)(F)F)c2)cc1-c1ccc2c(c1)OCCO2 [compound 75]	0.219 µM
Cc1cc(-c2cc(Nc3cccc(OC(F)(F)F)c3)nn2CC(=O)NC2CC2)cc(C)n1 [compound 147]	0.603 µM
Cc1cc(-c2cc(Nc3ccc(F)c(C(F)(F)F)c3)nn2CC(=O)NC2CCC2)cc(C)n1 [compound 174]	0.219 µM
Cc1cc(-c2cc(Nc3ccc(F)c(C(F)(F)F)c3)nn2CC(=O)NC2CC2)cc(C)n1 [compound 159]	0.457 µM
Cc1cc(-c2cc(Nc3ccc(F)c(C(F)(F)F)c3)nn2CC[C@H](C)O)ccn1 [compound 49]	1.82 µM
COc1cc(Nc2cc(-c3ccnc(C)c3C)n(CCC(=O)N(C)C)n2)cc(C(F)(F)F)c1 [compound 52]	0.912 µM
Cc1cc(-c2cc(Nc3cc(F)cc(Cl)c3)nn2CCC(=O)N(C)C)ccn1 [compound 41]	0.389 µM
Cc1cc(-c2cc(Nc3cccc(C(F)(F)F)c3)nn2CC(=O)NC2CCC2)cc(C)n1 [compound 144]	0.437 µM
Cc1cc(-c2cc(Nc3ccc(F)c(F)c3)nn2CC(=O)NC2CC2)cc(C)n1 [compound 160]	0.525 µM
Cc1cc(-c2cc(Nc3ccc(F)c(F)c3F)nn2CC(=O)NC2CC2)ccn1 [compound 116]	1.23 µM
CNC(=O)Cn1nc(Nc2cc(F)cc(Cl)c2)cc1-c1ccnc(C)c1 [compound 33]	1.78 µM
Cc1cc(-c2cc(Nc3cccc(Cl)c3F)nn2CC(=O)NC2CC2)cc(C)n1 [compound 169]	0.302 µM
CN(C)C(=O)CCn1nc(Nc2ccc3c(c2)OC(F)(F)O3)cc1-c1ccncc1 [compound 88]	0.309 µM

same assay, conditions: Ca2+ assay as described in D.1; @ 30 μM; read-out: % Efficacy

Compound	Emax at 30 µM
CNC(=O)Cn1nc(Nc2cc(F)c(F)c(F)c2)cc1-c1cccnc1 [compound 15]	832%
CNC(=O)Cn1nc(Nc2cccc(C(F)(F)F)c2)cc1-c1cccnc1 [compound 13]	967%
CCNC(=O)Cn1nc(Nc2cccc(C(F)(F)F)c2)cc1-c1cccnc1 [compound 18]	592%

same assay, conditions: Ca2+ assay as described in D.1; read-out: % Efficacy

Compound	Emax
CNC(=O)Cn1nc(Nc2ccc(F)c(F)c2F)cc1-c1cc(C)nc(C)c1 [compound 120]	969%
CNC(=O)Cn1nc(Nc2cc(F)c(F)c(F)c2)cc1-c1cc(C)nc(C)c1 [compound 127]	616%
Cc1cc(-c2cc(Nc3cccc(C(F)(F)F)c3)nn2CC(=O)NC2CC2)cc(C)n1 [compound 150]	568%
Cc1ccnc(-c2cc(Nc3ccc(F)c(C(F)(F)F)c3)nn2C[C@H](C)O)c1 [compound 25]	500%
Cc1cc(-c2cc(Nc3cc(F)c(F)c(F)c3)nn2CC(=O)NC2CC2)cc(C)n1 [compound 172]	393%
Cc1cc(-c2cc(Nc3ccc(F)c(C(F)(F)F)c3)nn2CCC(=O)N(C)C)cc(C)n1 [compound 161]	737%
CCNC(=O)Cn1nc(Nc2cccc(OC(F)(F)F)c2)cc1-c1cc(C)nc(C)c1 [compound 139]	710%
COc1cc(Nc2cc(-c3cc(C)nc(C)c3)n(CC(=O)NC3CCC3)n2)cc(C(F)(F)F)c1 [compound 162]	750%
CNC(=O)Cn1nc(Nc2cccc(Cl)c2F)cc1-c1cc(C)nc(C)c1 [compound 141]	519%
COc1cc(Nc2cc(-c3cc(C)nc(C)c3)n(CC(=O)NC3CC3)n2)cc(C(F)(F)F)c1 [compound 138]	686%
CCNc1cc(-c2cc(Nc3cc(OC)cc(C(F)(F)F)c3)nn2C[C@H](C)O)ccn1 [compound 63]	700%
CNC(=O)Cn1nc(Nc2cccc(OC(F)(F)F)c2)cc1-c1cc(C)nc(C)c1 [compound 129]	726%
Cc1cc(-c2cc(Nc3cc(F)cc(Cl)c3)nn2C[C@H](C)O)ccn1 [compound 42]	200%
Cc1cc(-c2cc(Nc3ccc(F)c(F)c3)nn2CC(=O)NC2CCC2)cc(C)n1 [compound 171]	507%
CCNc1cc(-c2cc(Nc3ccc(F)c(C(F)(F)F)c3)nn2C[C@H](C)O)cc(C)n1 [compound 67]	800%
CC[C@H](O)Cn1nc(Nc2ccc(F)c(C(F)(F)F)c2)cc1-c1ccc(C)nc1 [compound 29]	500%
CNC(=O)Cn1nc(Nc2cc(F)c(F)c(F)c2)cc1-c1ccnc(C)c1 [compound 109]	559%
Cc1cc(-c2cc(Nc3ccc(F)c(F)c3F)nn2CC(=O)NC2CC2)cc(C)n1 [compound 156]	975%
CCNC(=O)Cn1nc(Nc2cc(F)c(F)c(F)c2)cc1-c1cc(C)nc(C)c1 [compound 167]	762%
Cc1cc(-c2cc(Nc3cccc(OC(F)(F)F)c3)nn2CC(=O)NC2CC2)cc(C)n1 [compound 147]	643%
Cc1cc(-c2cc(Nc3ccc(F)c(C(F)(F)F)c3)nn2CC(=O)NC2CCC2)cc(C)n1 [compound 174]	651%
Cc1cc(-c2cc(Nc3ccc(F)c(C(F)(F)F)c3)nn2CC(=O)NC2CC2)cc(C)n1 [compound 159]	842%
Cc1cc(-c2cc(Nc3ccc(F)c(C(F)(F)F)c3)nn2CC[C@H](C)O)ccn1 [compound 49]	500%
Cc1cc(-c2cc(Nc3cccc(C(F)(F)F)c3)nn2CC(=O)NC2CCC2)cc(C)n1 [compound 144]	444%
Cc1cc(-c2cc(Nc3ccc(F)c(F)c3)nn2CC(=O)NC2CC2)cc(C)n1 [compound 160]	927%
Cc1cc(-c2cc(Nc3ccc(F)c(F)c3F)nn2CC(=O)NC2CC2)ccn1 [compound 116]	596%
Cc1cc(-c2cc(Nc3cccc(Cl)c3F)nn2CC(=O)NC2CC2)cc(C)n1 [compound 169]	577%

Source: patent publication US8779158B2, “Trisubstituted pyrazoles as acetylcholine receptor modulators” (Janssen Pharmaceutica NV, priority 2008, dated 2014)
